Data as given in EP2712863B1, “Novel inhibitors of bacterial biofilms and related methods” (Sequoia Sciences, Inc., priority 2012, dated 2014).
Converted amounts (≈) assume the structure as drawn. Like-named read-outs stand apart in the source and are kept apart here.

What was measured:
[1] = test system: E. coli; assay: Biofilm growth assay (spreading biofilm on semi-solid agar); assay type: cell-based; details: Escherichia coli
Method in brief: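 Spreading (swarming) biofilm on semi-solid agar: E. coli on LB with 0.6% agar and 0.5% glucose; P. aeruginosa on M8 agar with 0.2% glucose, 100 µM CaCl2, 1 mM MgSO4, 0.5% Casamino acids. Compound in medium; 5 µL overnight culture spotted centrally, 37°C overnight. Value: concentration (µg/ml) giving ≥85% reduction in spread area versus negative control.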

[2] = test system: P. aeruginosa; assay: as above; assay type: cell-based; details: Pseudomonas aeruginosa
[3] = Table 3, concentration that reduces the area of the spreading biofilm by >= 85%, read-out: E. coli
[4] = Table 3, concentration that reduces the area of the spreading biofilm by >= 85%, read-out: P. aeruginosa
[5] = Table 4, concentration that reduces the area of the spreading biofilm by >= 85%, read-out: E. coli
[6] = Table 4, concentration that reduces the area of the spreading biofilm by >= 85%, read-out: P. aeruginosa
[7] = Table 2, concentration that reduces the area of the spreading biofilm by >= 85%, read-out: E. coli
[8] = Table 2, concentration that reduces the area of the spreading biofilm by >= 85%, read-out: P. aeruginosa

In the case of `CC1(C)CC[C@]2(C(=O)O)CC[C@]3(C)C(=C(c4cccc5c4CCNC5)CC4[C@@]5(C)Cc6c(n[nH]c6N)C(C)(C)C5CC[C@]43C)C2C1` (stereo partly drawn) [Compound 47, (4aS,6aS,6bR,13aR)-12-Amino-2,2,6a,6b,9,9,13a-heptamethyl-15-(1,2,3,4-tetrahydroisoquinolin-5-yl)-2,3,4,4a,5,6,6a,6b,7,8,8a,9,11,13,13a,13b,14,15b-octadecahydro-1H-chryseno[1,2-f]indazole-4a-carboxylic acid], the IC85 [1, 3] is reported as 1 µg/mL (≈ 1.6 µM) and the IC85 [2, 4] is reported as 0.5 µg/mL (≈ 0.8 µM).
For `CC1(C)CC[C@]2(C(=O)O)CC[C@]3(C)C(=C(c4cccc(O)c4)CC4[C@@]5(C)Cc6c(n[nH]c6N)C(C)(C)C5CC[C@]43C)C2C1` (stereo partly drawn) [Compound 16, (4aS,6aS,6bR,13aR)-12-Amino-15-(3-hydroxyphenyl)-2,2,6a,6b,9,9,13a-heptamethyl-2,3,4,4a,5,6,6a,6b,7,8,8a,9,11,13,13a,13b,14,15b-octadecahydro-1H-chryseno[1,2-f]indazole-4a-carboxylic acid], the IC85 [1, 3] was 2 µg/mL (≈ 3.41 µM) and the IC85 [2, 4] was 1 µg/mL (≈ 1.71 µM).
`CN(C)CCc1c([C@]23CCC(C)(C)CC2C2=CCC4[C@@]5(C)Cc6c(n[nH]c6N)C(C)(C)C5CC[C@@]4(C)[C@]2(C)CC3)n[nH]c1O` (stereo partly drawn) [Compound 85, 3-((4aS,6aS,6bR,13aR)-12-Amino-2,2,6a,6b,9,9,13a-heptamethyl-2,3,4,4a,5,6,6a,6b,7,8,8a,9,11,13,13a,13b,14,15b-octadecahydro-1H-chryseno[1,2-f]indazol-4a-yl)-4-(2-(dimethylamino)ethyl)-1H-pyrazol-5-ol] gave an IC85 [1, 5] of 1 µg/mL (≈ 1.66 µM) and an IC85 [2, 6] of 0.5 µg/mL (≈ 0.829 µM).
Molecule `CC1(C)CC[C@]2(c3n[nH]c(O)c3CCN)CC[C@]3(C)C(=CCC4[C@@]5(C)Cc6c(n[nH]c6N)C(C)(C)C5CC[C@]43C)C2C1` (stereo partly drawn) [Compound 84, 3-((4aS,6aS,6bR,13aR)-12-Amino-2,2,6a,6b,9,9,13a-heptamethyl-2,3,4,4a,5,6,6a,6b,7,8,8a,9,11,13,13a,13b,14,15b-octadecahydro-1H-chryseno[1,2-f]indazol-4a-yl)-4-(2-aminoethyl)-1H-pyrazol-5-ol] has an IC85 [1, 5] of 0.5 µg/mL (≈ 0.87 µM) and an IC85 [2, 6] of 0.125 µg/mL (≈ 0.217 µM).
`CC1(C)CC[C@]2(C(=O)O)CC[C@]3(C)C(=C(c4coc(CN5CCNCC5)c4)CC4[C@@]5(C)Cc6c(n[nH]c6N)C(C)(C)C5CC[C@]43C)C2C1` (stereo partly drawn) [Compound 39, (4aS,6aS,6bR,13aR)-12-Amino-2,2,6a,6b,9,9,13a-heptamethyl-15-(5-(piperazin-1-ylmethyl)furan-3-yl)-2,3,4,4a,5,6,6a,6b,7,8,8a,9,11,13,13a,13b,14,15b-octadecahydro-1H-chryseno[1,2-f]indazole-4a-carboxylic acid] gave an IC85 [1, 3] of 2 µg/mL (≈ 3.04 µM) and an IC85 [2, 4] of 1 µg/mL (≈ 1.52 µM).
`Cn1cc(C2=C3[C@@H]4CC(C)(C)CC[C@]4(C(=O)O)CC[C@@]3(C)[C@]3(C)CC[C@H]4C(C)(C)c5n[nH]c(N)c5C[C@]4(C)C3C2)cn1` (stereo partly drawn) [Compound 28, (4aS,6aS,6bR,8aR,13aR,15bS)-12-Amino-2,2,6a,6b,9,9,13a-heptamethyl-15-(1-methyl-1H-pyrazol-4-yl)-2,3,4,4a,5,6,6a,6b,7,8,8a,9,11,13,13a,13b,14,15b-octadecahydro-1H-chryseno[1,2-f]indazole-4a-carboxylic acid] showed an IC85 [1, 3] of 2 µg/mL (≈ 3.49 µM) and an IC85 [2, 4] of 1 µg/mL (≈ 1.74 µM).
Work on `CC1(C)CC[C@]2(C(=O)O)CC[C@]3(C)C(=C(c4c[nH]c5ccccc45)CC4[C@@]5(C)Cc6c(n[nH]c6N)C(C)(C)[C@@H]5CC[C@]43C)[C@@H]2C1` (stereo partly drawn) [Compound 8, (4aS,6aS,6bR,8aR,13aR,15bS)-12-Amino-15-(1H-indol-3-yl)-2,2,6a,6b,9,9,13a-heptamethyl-2,3,4,4a,5,6,6a,6b,7,8,8a,9,11,13,13a,13b,14,15b-octadecahydro-1H-chryseno[1,2-f]indazole-4a-carboxylic acid] yielded an IC85 [1, 7] of 1 µg/mL (≈ 1.64 µM) and an IC85 [2, 8] of 0.25 µg/mL (≈ 0.411 µM).
With `CC1(C)CC[C@]2(C(=O)Nc3nnc(S)s3)CC[C@]3(C)C(=CCC4[C@@]5(C)Cc6c(n[nH]c6N)C(C)(C)C5CC[C@]43C)C2C1` (stereo partly drawn) [Compound 74, (4aS,6aS,6bR,13aR)-12-Amino-N-(5-mercapto-1,3,4-thiadiazol-2-yl)-2,2,6a,6b,9,9,13a-heptamethyl-2,3,4,4a,5,6,6a,6b,7,8,8a,9,11,13,13a,13b,14,15b-octadecahydro-1H-chryseno[1,2-f]indazole-4a-carboxamide] the IC85 [1, 5] was > 2 µg/mL and the IC85 [2, 6] was 1 µg/mL (≈ 1.64 µM).
In the case of `COC(=O)[C@]12CCC(C)(C)CC1C1=CCC3[C@@]4(C)CC[C@H](O)C(C)(C)C4CC[C@@]3(C)[C@]1(C)CC2` (stereo partly drawn) [Oleanolic acid methyl ester, reference compound], the IC85 ([1]; Table 1, concentration that reduces the area of the spreading biofilm vs negative controls by >= 85%, > means not effective at this concentration, read-out: E. coli) is reported as > 16 µg/mL and the IC85 ([2]; Table 1, concentration that reduces the area of the spreading biofilm vs negative controls by >= 85%, > means not effective at this concentration, read-out: P. aeruginosa) is reported as > 16 µg/mL.
For `CNCCc1c([C@]23CCC(C)(C)CC2C2=CCC4[C@@]5(C)Cc6c(n[nH]c6N)C(C)(C)C5CC[C@@]4(C)[C@]2(C)CC3)n[nH]c1O` (stereo partly drawn) [Compound 86, 3-((4aS,6aS,6bR,13aR)-12-Amino-2,2,6a,6b,9,9,13a-heptamethyl-2,3,4,4a,5,6,6a,6b,7,8,8a,9,11,13,13a,13b,14,15b-octadecahydro-1H-chryseno[1,2-f]indazol-4a-yl)-4-(2-(methylamino)ethyl)-1H-pyrazol-5-ol], the IC85 [1, 5] was 2 µg/mL (≈ 3.4 µM) and the IC85 [2, 6] was 0.5 µg/mL (≈ 0.849 µM).
Work on `CC1=C2[C@@H]3CC(C)(C)CC[C@]3(C(=O)O)CC[C@@]2(C)[C@]2(C)CC[C@H]3C(C)(C)c4n[nH]c(N)c4C[C@]3(C)C2C1` (stereo partly drawn) [Compound 4, (4aS,6aS,6bR,8aR,13aR,15bS)-12-Amino-2,2,6a,6b,9,9,13a,15-octamethyl-2,3,4,4a,5,6,6a,6b,7,8,8a,9,11,13,13a,13b,14,15b-octadecahydro-1H-chryseno[1,2-f]indazole-4a-carboxylic acid] yielded an IC85 [1, 7] of 1 µg/mL (≈ 1.97 µM) and an IC85 [2, 8] of 0.25 µg/mL (≈ 0.492 µM).
Work on `CC1(C)CC[C@]2(c3n[nH]c(O)c3CCN)CC[C@]3(C)C(=C(c4ccoc4CN4CCOCC4)CC4[C@@]5(C)Cc6c(n[nH]c6N)C(C)(C)[C@@H]5CC[C@]43C)[C@@H]2C1` (stereo partly drawn) [Compound 92, 3-((4aS,6aS,6bR,8aR,13aR,15bS)-12-Amino-2,2,6a,6b,9,9,13a-heptamethyl-15-(2-(morpholinomethyl)furan-3-yl)-2,3,4,4a,5,6,6a,6b,7,8,8a,9,11,13,13a,13b,14,15b-octadecahydro-1H-chryseno[1,2-f]indazol-4a-yl)-4-(2-aminoethyl)-1H-pyrazol-5-ol] yielded an IC85 ([1]; Table 5, concentration that reduces the area of the spreading biofilm by >= 85%, read-out: E. coli) of 2 µg/mL (≈ 2.7 µM) and an IC85 ([2]; Table 5, concentration that reduces the area of the spreading biofilm by >= 85%, read-out: P. aeruginosa) of 0.5 µg/mL (≈ 0.676 µM).
For `CC1(C)CC[C@]2(C(=O)n3ccnc3N)CC[C@]3(C)C(=CCC4[C@@]5(C)Cc6c(n[nH]c6N)C(C)(C)C5CC[C@]43C)C2C1` (stereo partly drawn) [Compound 73, (2-Amino-1H-imidazol-1-yl)((4aS,6aS,6bR,13aR)-12-amino-2,2,6a,6b,9,9,13a-heptamethyl-2,3,4,4a,5,6,6a,6b,7,8,8a,9,11,13,13a,13b,14,15b-octadecahydro-1H-chryseno[1,2-f]indazol-4a-yl)methanone], the IC85 [1, 5] was 1 µg/mL (≈ 1.79 µM) and the IC85 [2, 6] was 1 µg/mL (≈ 1.79 µM).
Molecule `CC1(C)CC[C@]2(c3n[nH]c(O)c3N3CCNCC3)CC[C@]3(C)C(=CCC4[C@@]5(C)Cc6c(n[nH]c6N)C(C)(C)C5CC[C@]43C)C2C1` (stereo partly drawn) [Compound 90, 3-((4aS,6aS,6bR,13aR)-12-Amino-2,2,6a,6b,9,9,13a-heptamethyl-2,3,4,4a,5,6,6a,6b,7,8,8a,9,11,13,13a,13b,14,15b-octadecahydro-1H-chryseno[1,2-f]indazol-4a-yl)-4-(piperazin-1-yl)-1H-pyrazol-5-ol] has an IC85 ([1]; read-out: E. coli (µg/ml)) of 1 µg/mL (≈ 1.62 µM) and an IC85 ([2]; read-out: P. aeruginosa (µg/ml)) of 0.5 µg/mL (≈ 0.812 µM).
Work on `CC1(C)CC[C@]2(C(=O)O)CC[C@]3(C)C(=C(c4ccco4)CC4[C@@]5(C)Cc6c(n[nH]c6N)C(C)(C)C5CC[C@]43C)C2C1` (stereo partly drawn) [Compound 7, (4aS,6aS,6bR,13aR)-12-Amino-15-(furan-2-yl)-2,2,6a,6b,9,9,13a-heptamethyl-2,3,4,4a,5,6,6a,6b,7,8,8a,9,11,13,13a,13b,14,15b-octadecahydro-1H-chryseno[1,2-f]indazole-4a-carboxylic acid] yielded an IC85 [1, 7] of 1 µg/mL (≈ 1.79 µM) and an IC85 [2, 8] of 0.25 µg/mL (≈ 0.447 µM).
With `CC1(C)CC[C@]2(C(=O)O)CC[C@]3(C)C(=C(c4ccc(CN5CCOCC5)cc4)CC4[C@@]5(C)Cc6c(n[nH]c6N)C(C)(C)C5CC[C@]43C)C2C1` (stereo partly drawn) [Compound 52, (4aS,6aS,6bR,13aR)-12-Amino-2,2,6a,6b,9,9,13a-heptamethyl-15-(4-(morpholinomethyl)phenyl)-2,3,4,4a,5,6,6a,6b,7,8,8a,9,11,13,13a,13b,14,15b-octadecahydro-1H-chryseno[1,2-f]indazole-4a-carboxylic acid] the IC85 [1, 3] was 2 µg/mL (≈ 2.99 µM) and the IC85 [2, 4] was 1 µg/mL (≈ 1.49 µM).
`CC1(C)CC[C@]2(C(=O)O)CC[C@]3(C)C(=C(c4cccc(CN)c4)CC4[C@@]5(C)Cc6c(n[nH]c6N)C(C)(C)C5CC[C@]43C)C2C1` (stereo partly drawn) [Compound 18, (4aS,6aS,6bR,13aR)-12-Amino-15-(3-(aminomethyl)phenyl)-2,2,6a,6b,9,9,13a-heptamethyl-2,3,4,4a,5,6,6a,6b,7,8,8a,9,11,13,13a,13b,14,15b-octadecahydro-1H-chryseno[1,2-f]indazole-4a-carboxylic acid] was tested, and the IC85 [1, 3] was 1 µg/mL (≈ 1.67 µM) and the IC85 [2, 4] was 0.5 µg/mL (≈ 0.835 µM).
With `CN(C)c1cccc(C2=C3C4CC(C)(C)CC[C@]4(C(=O)O)CC[C@@]3(C)[C@]3(C)CCC4C(C)(C)c5n[nH]c(N)c5C[C@]4(C)C3C2)c1` (stereo partly drawn) [Compound 21, (4aS,6aS,6bR,13aR)-12-Amino-15-(3-(dimethylamino)phenyl)-2,2,6a,6b,9,9,13a-heptamethyl-2,3,4,4a,5,6,6a,6b,7,8,8a,9,11,13,13a,13b,14,15b-octadecahydro-1H-chryseno[1,2-f]indazole-4a-carboxylic acid] the IC85 [1, 3] was > 2 µg/mL and the IC85 [2, 4] was 0.5 µg/mL (≈ 0.816 µM).
